Measurements from patent publication US6376535B2, “Oxygen-containing heterocyclic compounds” (Kyowa Hakko Kogyo Co., Ltd., priority 1998, dated 2002).

Tested on: not given
Test: not given
Conditions: not given

Compound | melting point
COC=C1CCC(C#N)(c2ccc(OC)c3c2OCCO3)CC1 (stereo not drawn) [Compound 6, 1-(8-Methoxy-1,4-benzodioxan-5-yl)-4-methoxymethylenecyclohexane carbonitrile] | 112 to 113 °C
CCOC(=O)C=C1CCC(C#N)(c2ccc(OC)c3c2OCCO3)CC1 (stereo not drawn) [Compound 10, Ethyl 4-cyano-4-(8-methoxy-1,4-benzodioxan-5-yl)cyclohexanylideneacetate] | 110 to 112 °C

The remaining lines, values ahead:

melting point | Compound
203 to 204 °C | COc1ccc(C2(C#N)CCC(=CC(=O)O)CC2)c2c1OCCO2 (stereo not drawn) [Compound 11, 4-Cyano-4-(8-methoxy-1,4-benzodioxan-5-yl)cyclohexanylideneacetic acid]
158 to 160 °C | COc1ccc(-c2cccc3c2COC3=O)c2c1OCCO2 [Compound 22, 4-(8-Methoxy-1,4-benzodioxan-5-yl)-1(3H)-isobenzofuranone]
285 to 287 °C | COc1ccc(-c2ccc3c(c2)C(=O)NC3=O)c2c1OCCO2 [Compound 23, 4-(8-Methoxy-1,4-benzodioxan-5-yl)phthalimide]

Target: T1, Recombinant Human PDE IV Enzyme (HSPDE4A) (Homo sapiens, UniProt P27815)
T1 construct: made in house; host or cells: E. coli
T1 sequence (P27815 224-886 limits assumed): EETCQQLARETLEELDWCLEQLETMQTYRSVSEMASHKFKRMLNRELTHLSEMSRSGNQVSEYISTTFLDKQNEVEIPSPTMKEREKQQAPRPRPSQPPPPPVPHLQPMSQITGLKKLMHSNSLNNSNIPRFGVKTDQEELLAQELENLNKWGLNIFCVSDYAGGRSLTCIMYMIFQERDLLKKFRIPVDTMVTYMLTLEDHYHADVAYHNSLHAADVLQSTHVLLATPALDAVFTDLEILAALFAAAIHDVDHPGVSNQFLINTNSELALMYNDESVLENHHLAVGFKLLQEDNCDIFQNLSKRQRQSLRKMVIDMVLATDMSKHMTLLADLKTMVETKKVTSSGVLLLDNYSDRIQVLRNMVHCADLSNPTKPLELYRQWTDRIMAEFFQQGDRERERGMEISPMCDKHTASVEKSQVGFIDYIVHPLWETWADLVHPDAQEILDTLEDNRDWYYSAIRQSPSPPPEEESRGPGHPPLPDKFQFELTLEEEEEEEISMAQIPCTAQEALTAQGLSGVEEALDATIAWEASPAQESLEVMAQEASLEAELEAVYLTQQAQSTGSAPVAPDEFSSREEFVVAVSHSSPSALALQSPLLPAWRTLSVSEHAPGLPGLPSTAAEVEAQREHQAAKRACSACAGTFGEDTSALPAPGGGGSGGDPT
Test: Inhibition Test on Recombinant Human PDE IV Enzyme
Format: biochemical
Conditions: substrate [3H]cAMP 1 μmol/L
Experimental: Inhibition Test on Recombinant Human PDE IV Enzyme
Human phosphodiesterase cDNA (HSPDE4A) was isolated from testicles. Its predicted amino acid sequence is identical with the sequence (HSPDE4A5) reported by Bolger, G. et al. (Mol. Cell. Biol., 6558 (1993)) except that 223 amino acids have been deleted from the N-terminal thereof. This recombinant protein was expressed by an E. coli expression plasmid and then purified. The PDE activity was measured in the following 2-step process according to the method of Kincaid, R. and Manganiello, V. [Method. Enzymol., 159, 457 (1988)]. The substrate used was [^3H]cAMP (final concentration: 1 μmol/L), and the reaction was performed in a standard mixture containing N,N-bis(2-hydroxyethyl)-2-aminoethanesulfonic acid (50 mmol/L, pH 7.2), MgCl2 (1 mmol/L) and soybean trypsin inhibitor (0.1 mg/ml). The reaction was initiated by adding the enzyme thereto, and the mixture was incubated at 30° C. for 10 to 30 minutes. The reaction was quenched by hydrochloric acid, and the formed 5′-AMP was completely decomposed with […]. This sample was subjected to chromatography on DEAE-Sephadex A-25, and the eluted [^3H]adenosine was counted […] with a scintillation counter. The test compound was added after dissolved (concentration: 1.7%) in DMSO.

enzyme inhibitory activity | Compound
over 87% | COc1ccc(C2(C#N)CCC(C(=O)O)CC2)c2c1OCCO2 (stereo not drawn) [Compound 5, cis-4-Cyano-4-(8-methoxy-1,4-benzodioxan-5-yl)cyclohexanecarboxylic acid]
